Results on 61 compounds are retold here after US10633389B2, “CARM1 inhibitors and uses thereof” (Epizyme, Inc., priority 2013, dated 2020).

The test system of the test is asymmetric di-methyl PABP1 in RKO cells. The test is described as follows: RKO methylation assay, In Cell Western (ICW) for asymmetric di-methyl PABP1. Type of test: cell-based. To be noted: Homo sapiens, RKO, Cellular potencies, ICW PABP1me2a. The method in brief:
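In-cell Western on fixed RKO cells after 48 h compound exposure: anti-asymmetric di-methyl PABP1 signal at 800 nm over DRAQ5 DNA signal at 700 nm. Percent inhibition set between DMSO wells and wells with 20 μM reference compound; IC50 curves fitted in triplicate.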
As to `CNCC(O)COc1cccc(-c2nc(N[C@@H]3CCN(C(=O)OC)C[C@@H]3F)c(C)c(-c3c(C)noc3C)n2)c1` (stereo partly shown) [Example 225-1a], the IC50 – broadly, the concentration at which inhibition is half-maximal – is below 5 µM. With `CNC[C@@H](O)COc1cccc(-c2nc(NC3CCOCC3)c(C)c(-c3c(C)noc3C)n2)c1` [Example 56-1a], the IC50 is below 5 µM. `CNCC(O)COc1cccc(-c2nc(-c3c(C)noc3C)cc(-c3cnc4cnccn34)n2)c1` (stereo not shown) [Example 112-1a] returned an IC50 of 10 to 20 µM. For the compound `CNCC(O)COc1cccc(-c2nc(NC3CCOC3)c(C)c(N3CCNC[C@H]3C)n2)c1` (stereo partly shown) [Example 352-1a], the IC50 was in the range of 10 to 20 µM. Compound `CNCC(O)COc1cccc(-c2nc(-c3c(C)noc3C)cc(N3CCN(C(=O)N(C)C)[C@H](C)C3)n2)c1` (stereo partly shown) [Example 146-1a] registered an IC50 below 5 µM. `CCOC(=O)N1CCOC[C@@H]1COc1nc(-c2cc(OC[C@H](O)CNC)ccc2Cl)nc(-c2c(C)noc2C)c1C` [Example 161-3] gave an IC50 below 5 µM. The figure for `CNCC(O)COc1cccc(-c2nc(-c3c(C)noc3C)c(C)c(N3CCO[C@H](CO)C3)n2)c1` (stereo partly shown) [Example 125-1a] is below 5 µM.

Take `CNCC(O)COc1cccc(-c2nc(N[C@@H]3CCOC3)c(C)c(-c3cncnc3)n2)c1` (stereo partly shown) [Example 350-1a]: the IC50 lay in the range of 10 to 20 µM. Consider `CNC[C@@H](O)COc1ccc(Cl)c(-c2nc(N[C@@H]3CCN(C4CC4)C[C@@H]3F)c(Cl)c(-c3c(C)noc3C)n2)c1` [Example 211-3], for which the IC50 is below 5 µM.

On to `CNCC(O)COc1cc(NC)cc(-c2nc(NC3CCOCC3)c(C)c(-c3c(C)noc3C)n2)c1` (stereo not shown) [Example 136-1a], for which the IC50 was below 5 µM. In the case of `CNC[C@@H](O)COc1cccc(-c2nc(NCC3CCOCC3)c(C)c(-c3c(C)noc3C)n2)c1` [Example 183-1a] it was below 5 µM. In the case of `CNCC(O)COc1cccc(-c2nc(OCC3CCNCC3)c(C)c(-c3c(C)noc3C)n2)c1` (stereo not shown) [Example 289-1a] it was 5 to 10 µM. The figure for `CNCC(O)COc1cccc(-c2nc(-c3cnc4nccn4c3)cc(N(C)C3CCOCC3)n2)c1` (stereo not shown) [Example 620-1a] is 10 to 20 µM; for `CNCC(O)COc1cccc(-c2nc(-c3c(C)noc3C)c(C)c(N3CCN(C(=O)C4CCOCC4)CC3)n2)c1` (stereo not shown) [Example 108-1a] it is below 5 µM. In turn, `CNCC(O)COc1cccc(-c2nc(-c3c(C)noc3C)cc(N3CCC4(CC3)NC(=O)NC4=O)n2)c1` (stereo not shown) [Example 42-1a] returned a half-maximal inhibitory concentration (IC50) of 10 to 20 µM.

`Cc1noc(C)c1-c1nc(-c2cc(OC[C@H](O)CN(C)C)ccc2Cl)nc(N[C@H]2CCN(C3CC3)[C@@H](C)C2)c1C` [Example 171-3]: the IC50 is below 5 µM. Compound `CNCC(O)COc1ccc(Cl)c(-c2nc(NC3CC4(C3)CN(C(=O)OC)C4)c(C)c(-c3c(C)noc3C)n2)c1` (stereo not shown) [Example 45-3] displayed an IC50 below 5 µM. With `CNCC(O)COc1cccc(-c2nc(N[C@@H]3CCOC[C@@H]3F)c(C)c(-c3c(C)noc3C)n2)c1` (stereo partly shown) [Example 271-1a], the IC50 is below 5 µM. In the case of `CNC[C@@H](O)COc1ccc(Cl)c(-c2nc(-c3c(C)noc3C)c(C)c(N3Cc4nccnc4C3)n2)c1` [Example 142-3] it was below 5 µM; in that of `CNCC(O)COc1cccc(-c2nc(N[C@@H]3CCOC3)c(C)c(-c3ccc(OC)nc3)n2)c1` (stereo partly shown) [Example 408-1a], 5 to 10 µM. Turning to `CNCC(O)COc1cccc(-c2nc(-c3c(C)noc3C)c(C)c(N3CC[C@H](C(=O)N(C)C)C3)n2)c1` (stereo partly shown) [Example 162-1a], the IC50 was below 5 µM. `CNC[C@@H](O)COc1ccc(Cl)c(-c2nc(-c3c(C)noc3C)cc(N3Cc4nccnc4C3)n2)c1` [Example 251-3] came in with a half-inhibitory concentration (IC50) below 5 µM.

Turning to `CNCC(O)COc1cccc(-c2nc(N[C@@H]3CCOC3)c(C)c(N3CCC(c4cccnc4)C3)n2)c1` (stereo partly shown) [Example 461-1a], the IC50 was in the range of 10 to 20 µM.

On to `CCO[C@H]1CCC[C@@H]1Nc1nc(-c2cc(OC[C@H](O)CNC)ccc2Cl)nc(-c2c(C)noc2C)c1C` [Example 222-3], for which the IC50 was below 5 µM.

Compound `CCOC(=O)N1CCN(c2nc(-c3cccc(OCC(O)CNC)c3)nc(N[C@@H]3CCOC3)c2C)CC1` (stereo partly shown) [Example 456-1a] returned an IC50 below 5 µM.

Compound `CNCC(O)COc1cccc(-c2nc(N[C@@H]3CCOC3)c(Cl)c(N3CCOCC3)n2)c1` (stereo partly shown) [Example 376-1a] showed an IC50 of 5 to 10 µM. Compound `CNCC(O)COc1cccc(-c2nc(-c3c(C)noc3C)c(C)c(N3CCO[C@@H](CN(C)S(C)(=O)=O)C3)n2)c1` (stereo partly shown) [Example 150-1a] yielded a half-inhibitory concentration (IC50) of 5 to 10 µM. `CNCC(O)COc1cccc(-c2nc(N[C@@H]3CCOC3)c(C)c(C3=CC(C)(C)NC(C)(C)C3)n2)c1` (stereo partly shown) [Example 415-1a]: the IC50 lay in the range of 10 to 20 µM. Regarding `CNC[C@@H](O)COc1ccc(Cl)c(-c2nc(-c3c(C)noc3C)c(C)c(N3CC4(CCCOC4)C3)n2)c1` [Example 119-3], the IC50 is below 5 µM. Consider `CNC[C@@H](O)COc1ccc(Cl)c(-c2nc(NC[C@H]3COCCN3C(=O)OC(C)C)c(C)c(-c3c(C)noc3C)n2)c1` [Example 134-3], for which the IC50 was below 5 µM. As for `CNCC(O)COc1cccc(-c2nc(N[C@@H]3CCOC3)c(C)c(-c3cncc(C#N)c3)n2)c1` (stereo partly shown) [Example 341-1a], the IC50 was in the range of 10 to 20 µM. On to `CNCC(O)COc1cccc(-c2nc(OCC3CCN(C(=O)OCc4ccccc4)CC3)c(C)c(-c3c(C)noc3C)n2)c1` (stereo not shown) [Example 259-1a], for which the IC50 was below 5 µM. The compound `CNC[C@@H](O)COc1cccc(-c2nc(-c3c(C)noc3C)c(C)c(-c3cn(S(C)(=O)=O)c4ncncc34)n2)c1` [Example 156-1a] returned an IC50 of 5 to 10 µM.

Compound `CNCC(O)COc1cccc(-c2nc(-c3c(C)noc3C)cc(N3C[C@@H]4C[C@H]3CN4C(C)=O)n2)c1` (stereo partly shown) [Example 95-1a] yielded an IC50 of 10 to 20 µM. `CCOC(=O)N1CCC[C@H]1CCNc1nc(-c2cc(OC[C@H](O)CNC)ccc2Cl)nc(-c2c(C)noc2C)c1C` [Example 137-3] yielded an IC50 below 5 µM.

`CCOC(=O)N1CC[C@@H](Nc2nc(-c3cc(OC[C@H](O)CNC)ccc3Cl)nc(-c3c(C)noc3C)c2C)C1` [Example 112-3] had a half-maximal inhibitory concentration (IC50) below 5 µM. For `CNC[C@@H](O)COc1ccc(Cl)c(-c2nc(N[C@H]3CCN(C)C[C@H]3F)c(C)c(-c3c(C)noc3C)n2)c1` [Example 147-3], the IC50 was below 5 µM.

Regarding `CNCC(O)COc1cccc(-c2nc(-c3cn(C)cn3)cc(N(C)C3CCOCC3)n2)c1` (stereo not shown) [Example 501-1a], the 50% inhibitory concentration (IC50) is below 5 µM. Turning to `CNC[C@@H](O)COc1ccc(Cl)c(-c2nc(-c3c(C)noc3C)c(C)c(N3CCc4ncccc43)n2)c1` [Example 199-3], the IC50 was below 5 µM.

As for `CNCC(O)COc1cccc(-c2nc(OCC3CCOCC3)c(C)c(-c3c(C)noc3C)n2)c1` (stereo not shown) [Example 182-1a], the IC50 was below 5 µM.

`CNCC(O)COc1cc(Cl)cc(-c2nc(N[C@@H]3CCOC3)c(C)c(-c3ccncc3)n2)c1` (stereo partly shown) [Example 331-1a] registered an IC50 of 5 to 10 µM. For the compound `CCOC(=O)N1CCC[C@@H]1CCNc1nc(-c2cc(OC[C@H](O)CNC)ccc2Cl)nc(-c2c(C)noc2C)c1C` [Example 136-3], the IC50 was below 5 µM.

`CNCC(O)COc1cccc(-c2nc(-c3c(C)noc3C)cc(N3CCNC(C)(C)C3)n2)c1` (stereo not shown) [Example 36-1a] yielded an IC50 of 10 to 20 µM. `CNCC(O)COc1cccc(-c2nc(N[C@H]3[C@@H]4CN(C(=O)OC)C[C@@H]43)c(C)c(-c3c(C)noc3C)n2)c1` (stereo partly shown) [Example 282-1a] showed an IC50 below 5 µM. In turn, `CNC[C@@H](O)COc1ccc(Cl)c(-c2nc(-c3c(C)noc3C)c(C)c(N3CCC4(CC3)CN(C3CC3)C4)n2)c1` [Example 158-3] came in with an IC50 below 5 µM. `CNC[C@@H](O)COc1ccc(Cl)c(-c2nc(N[C@@H]3CCN(C(=O)OC)[C@@H](C)C3)c(C)c(-c3c(C)noc3C)n2)c1` [Example 101-3]: the IC50 is below 5 µM.

The compound `CNCC(O)COc1cccc(-c2nc(N3CCC4(CCO4)CC3)cc(N(C)C3CCOCC3)n2)c1` (stereo not shown) [Example 579-1a] gave an IC50 of 10 to 20 µM. In turn, `CNCC(O)COc1cccc(-c2nc(-c3c(C)noc3C)c(C)c(N3CCC4(CC3)CN(S(C)(=O)=O)C4)n2)c1` (stereo not shown) [Example 179-1a] displayed an IC50 below 5 µM. `CNCC(O)COc1cccc(-c2nc(NC3CCOC3)c(C)c(N3CC(N)CC(Cl)C3)n2)c1` (stereo not shown) [Example 442-1a] came in with an IC50 of 10 to 20 µM. `CNCC(O)COc1cccc(-c2nc(-c3c(C)noc3C)cc(N3CCN(C4CC4)CC3)n2)c1` (stereo not shown) [Example 30-1a]: the IC50 is below 5 µM. The compound `CNCC(O)COc1cccc(-c2nc(NC3(C(F)(F)F)CC3)c(C)c(-c3c(C)noc3C)n2)c1` (stereo not shown) [Example 8-3] came in with a half-maximal inhibitory concentration (IC50) below 5 µM.

`CNCC(O)COc1cccc(-c2nc(-c3cnc(CO)n3C)cc(N(C)C3CCOCC3)n2)c1` (stereo not shown) [Example 572-1a] gave an IC50 of 10 to 20 µM. Compound `CNCC(O)COc1cccc(-c2nc(NC3CCN(C(=O)OC)CC3)c(C)c(-c3c(C)noc3C)n2)c1` (stereo not shown) [Example 118-1a] had an IC50 below 5 µM. `CNC[C@H](O)COc1ccc(F)c(-c2nc(-c3c(C)noc3C)c(C)c(N3Cc4cccnc4C3)n2)c1` [Example 91-3] showed an IC50 below 5 µM. As to `CNC[C@@H](O)COc1ccc(Cl)c(-c2nc(-c3c(C)noc3C)cc(N3Cc4cnn(C)c4C3)n2)c1` [Example 250-3], the IC50 is below 5 µM. Compound `CNCC(O)COc1cccc(-c2nc(N[C@@H]3CCOC3)c(C)c(N3CCN(C(C)=O)C(C)(C)C3)n2)c1` (stereo partly shown) [Example 439-1a] showed an IC50 of 5 to 10 µM. For `CNCC(O)COc1ccc(Cl)c(-c2nc(NC[C@H]3CCCO3)c(C)c(-c3c(C)noc3C)n2)c1` (stereo partly shown) [Example 6-3], the IC50 was below 5 µM. The figure for `CNCC(O)COc1cccc(-c2nc(-c3c(C)noc3C)c(C)c(N(C)[C@H]3C[C@@](C)(OC)C3)n2)c1` (stereo partly shown) [Example 20-3] is below 5 µM; for `CNCC(O)COc1cccc(-c2nc(NCC3(OC)CCOCC3)c(C)c(-c3c(C)noc3C)n2)c1` (stereo not shown) [Example 300-1a] it is below 5 µM.

`CNCC(O)COc1cccc(-c2nc(NC3CNC3)c(C)c(-c3c(C)noc3C)n2)c1` (stereo not shown) [Example 1-3] yielded an IC50 of at least 20 µM. With `CNCC(O)COc1cccc(-c2nc(N[C@@H]3CCOC3)c(C)c(N3CCC(OC)CC3)n2)c1` (stereo partly shown) [Example 370-1a], the IC50 is 5 to 10 µM.
